What was measured:
[1] = Free Ca2+ after addition of test substance, fluorimetric with FURA 2; format: physicochemical; details: free Ca²⁺ after addition of 1 mmol (1 mM) test substance; pH 7,1; control without fatty acid 200
Procedure: Die erfindungsgemäßen alpha-Hydroxyfettsäuren haben gegenüber Schwermetallionen, z.B. Fe²⁺ oder Erdalkali-Ionen wie Ca²⁺ eine hohe Bindungsfähigkeit, wie die folgende Untersuchung zeigt: a) Konzentration an freiem Ca²⁺ nach Zugabe von 1 mmol Testsubstanz
(§1) Der Testpuffer (100 mM KCl, 10 mM HEPES, 1 mM EGTA 0,5 mM CaCl₂, pH 7,1) wurden mit je 1 mM der Testsubstanz versetzt. Entstehende Niederschläge wurden abfiltriert. Das Filtrat wurde mit KOH auf pH 7,1 eingestellt und mit 1 µM FURA 2 versetzt. Die Konzentration an Ca²⁺ wurde fluorimetrisch bestimmt (Anregung 340 nm, 359 nm, 380 nm, Emission 510 nm). b) Konzentration an freiem Fe²⁺ nach Zugabe von 1 mmol alpha-Hydroxypalmitinsäure

[2] = Free Fe2+ after addition of test substance, photometric with 2,2'-Bipyridin; format: physicochemical; details: 1 mmol test substance mixed with 1 mmol Fe²⁺
Procedure: as §1
1 mmol Testsubstanz wurde mit 1 mmol Fe²⁺ versetzt. Entstehende Niederschläge wurden abfiltriert. Die Filtrate wurden mit 2,2'-Bipyridin versetzt und bei 565 nm photometrisch vermessen.

Pseudomonas putida = assay: Minimal inhibitory concentration; format: cell-based; details: 72 h incubation
Procedure: (§2) Bestimmung der minimalen Hemmkonzentration Eine frische Übernachtkultur des Testorganismus wurde 1:10⁴ in Nährmedium (5 g/ltr Tryptone, 3 g/ltr Hefeextrakt, pH 7,0) verdünnt und 3h inkubiert (30° C, 250 rpm). Anschließend wurde alpha-Hydroxy-palmitinsäure (D) in einer Endkonzentration von 2,0%; 1,5%; 1,0%; 0,75%; 0,5%; 0,25%; 0,1% und 0,06% zugegeben. Nach 72 h Inkubationszeit wurden der Bakterientiter durch Verdünnung und Ausplattierung überprüft. Bei den Ansätzen, bei denen keine Bakterien nachweisbar waren, wurde 1 ml des Ansatzes mit 9 ml Nährmedium versetzt und über Nacht inkubiert (30° C, 250 rpm). […]

Klebsiella pneumoniae = assay: Minimal inhibitory concentration; format: cell-based; details: 72 h incubation
Procedure: as §2

Salmonella livingstone = assay: Minimal inhibitory concentration; format: cell-based; details: 72 h incubation
Procedure: as §2

[3] = test system: Staphylococcus epidermidis; assay: Minimal inhibitory concentration; format: cell-based; details: 72 h incubation
Procedure: as §2

Micrococcus luteus = assay: Minimal inhibitory concentration; format: cell-based; details: 72 h incubation
Procedure: as §2

Pseudomonas aeruginosa = assay: Minimal inhibitory concentration; format: cell-based; details: 72 h incubation
Procedure: as §2

Corynebacterium xerosis = assay: Minimal inhibitory concentration; format: cell-based; details: 72 h incubation
Procedure: as §2

[4] = test system: Acinetobacter calcoaceticus; assay: Minimal inhibitory concentration; format: cell-based; details: 72 h incubation
Procedure: as §2

Escherichia coli = assay: Minimal inhibitory concentration; format: cell-based; details: 72 h incubation
Procedure: as §2

SMILES | Konz. Ca²⁺ [1] [nmol] | Konz. Fe²⁺ [2] [µmol] | other results
O=C(O)CC(O)(CC(=O)O)C(=O)O [Citronensäure] | 139 | 110 | 
O=C(O)CN(CCN(CC(=O)O)CC(=O)O)CC(=O)O [EDTA] | 25 |  | 
CCCCCCCCCCCCCC(=O)O [Myristinsäure] | 233 |  | 
CCCCCCCCCCCCCCCC(=O)O [Palmitinsäure] | 249 |  | 
CCCCCCCCCCCCCCC(O)C(=O)O (stereo not drawn) [alpha-Hydroxypalmitinsäure] | 38 | 20 | 
CCCCCCCCCCCCCC[C@@H](O)C(=O)O [alpha-OH-Hexadecansäure (D), alpha-Hydroxy-hexadecansäure] |  |  | Minimale Hemmkonzentration (Pseudomonas putida): 0,10%; Minimale Hemmkonzentration (Klebsiella pneumoniae): 0,50%; Minimale Hemmkonzentration (Salmonella livingstone): 0,50%; Minimale Hemmkonzentration [3]: 0,10%; Minimale Hemmkonzentration (Micrococcus luteus): 0,25%; Minimale Hemmkonzentration (Pseudomonas aeruginosa): 0,25%; Minimale Hemmkonzentration (Corynebacterium xerosis): 0,10%; Minimale Hemmkonzentration [4]: 0,75%; Minimale Hemmkonzentration (Escherichia coli): 0,50%

More lines, main results first:

Konz. Ca²⁺ [1] [nmol] | Konz. Fe²⁺ [2] [µmol] | SMILES | other results
200 | 100 | O=C(O)C(O)c1ccccc1 (stereo not shown) [Mandelsäure] | 
32 |  | CCCCCCCCCCCCC(O)C(=O)O (stereo not drawn) [alpha-Hydroxy-myristinsäure] | 
